Data as given in US20150238394A1, “Triggerable Compositions For Two-Stage, Controlled Release of Proactive Chemistry Using Aldehydes” (Kimberly-Clark Worldwide, Inc., priority 2014, published 2015).

Experiment: Volatility and smell of non-salt acetals, neat and embedded in polymer films brushed on polyethylene film and air-dried
Assay type: physicochemical
Conditions: embedded in PVP/VA, Eudragit E-100 and Eudragit S-100, brushed on polyethylene films, air-dried
Text: 1. Acetal of citronellal with ethanol and acetal of vanillin with ethanol were custom-synthesized. Their structures are shown below. […] The acetals were embedded in PVP/VA, Eudragit E-100, and Eudragit S-100 by simply dissolving the acetals in the solutions of those polymers. The solutions were then brushed on polyethylene films and air-dried. The parent aldehydes were also embedded in the same ratio in those polymers. Strong smells of both parent aldehydes and acetals could be nasally detected after drying. Those non-salt based acetals cannot effectively reduce the volatility of aldehyde-based fragrances and are not good pro-actives for stabilizing those fragrances.

Row | SMILES | smell nasally detected after drying
1 | CCOC(OCC)c1ccc(O)c(OC)c1 [acetal of vanillin with ethanol] | Strong smells
2 | CCOC(CC(C)CCC=C(C)C)OCC (stereo not shown) [Acetal of citronellal with ethanol] | Strong smells
3 | CC(C)=CCCC(C)CC=O (stereo not shown) [citronellal] | Strong smells
4 | COc1cc(C=O)ccc1O [vanillin] | Strong smells
